According to patent US20190038542A1, “MOISTURIZING PERSONAL CARE COMPOSITIONS COMPRISING MONODISPERSE PHYTOGLYCOGEN NANOPARTICLES AND A FURTHER POLYSACCHARIDE” (MIREXUS BIOTECHNOLOGIES INC., priority 2016, published 2019):

Test: Photostability of phytoglycogen-ethyl-4-aminocinnamate conjugate versus aminocinnamate
Format: physicochemical
Conditions: after 4 h of exposure to UV-irradiation, thin film
Description: Aminocinnamate and a phytoglycogen-ethyl-4-aminocinnamate conjugate were dissolved in ethanol or in water, respectively.
Solutions were deposited as thin films onto a quartz plate and dried in air for 30 min. After drying, the samples were irradiated with UV light, as in Example 11, for 4 h and then tested for their photostability.
Photodegradation was calculated from the decrease in the maximum absorption of the respective products.

activity retained: 40%
Structure (SMILES): CCOC(=O)C=Cc1ccc(N)cc1 [aminocinnamate, ethyl 4-aminocinnamate]
